Experimental data as given in ChEMBL document CHEMBL5465560, “Selectivity Literature for EUbOPEN Chemogenomic Library” (2024).
One block for each molecule: values may come before it.

Tests used:
[1] = target: T1, Phosphatidylinositol 4,5-bisphosphate 3-kinase catalytic subunit delta isoform (Homo sapiens) (UniProt O00329); assay: Selectivity interaction (ActivX KiNativ screen (kinase selectivity in THP-1 cell lysates)) EUB0000639a PIK3CD; type: subcellular; conditions: lysate, at 1 µM
T1 sequence (whole entry): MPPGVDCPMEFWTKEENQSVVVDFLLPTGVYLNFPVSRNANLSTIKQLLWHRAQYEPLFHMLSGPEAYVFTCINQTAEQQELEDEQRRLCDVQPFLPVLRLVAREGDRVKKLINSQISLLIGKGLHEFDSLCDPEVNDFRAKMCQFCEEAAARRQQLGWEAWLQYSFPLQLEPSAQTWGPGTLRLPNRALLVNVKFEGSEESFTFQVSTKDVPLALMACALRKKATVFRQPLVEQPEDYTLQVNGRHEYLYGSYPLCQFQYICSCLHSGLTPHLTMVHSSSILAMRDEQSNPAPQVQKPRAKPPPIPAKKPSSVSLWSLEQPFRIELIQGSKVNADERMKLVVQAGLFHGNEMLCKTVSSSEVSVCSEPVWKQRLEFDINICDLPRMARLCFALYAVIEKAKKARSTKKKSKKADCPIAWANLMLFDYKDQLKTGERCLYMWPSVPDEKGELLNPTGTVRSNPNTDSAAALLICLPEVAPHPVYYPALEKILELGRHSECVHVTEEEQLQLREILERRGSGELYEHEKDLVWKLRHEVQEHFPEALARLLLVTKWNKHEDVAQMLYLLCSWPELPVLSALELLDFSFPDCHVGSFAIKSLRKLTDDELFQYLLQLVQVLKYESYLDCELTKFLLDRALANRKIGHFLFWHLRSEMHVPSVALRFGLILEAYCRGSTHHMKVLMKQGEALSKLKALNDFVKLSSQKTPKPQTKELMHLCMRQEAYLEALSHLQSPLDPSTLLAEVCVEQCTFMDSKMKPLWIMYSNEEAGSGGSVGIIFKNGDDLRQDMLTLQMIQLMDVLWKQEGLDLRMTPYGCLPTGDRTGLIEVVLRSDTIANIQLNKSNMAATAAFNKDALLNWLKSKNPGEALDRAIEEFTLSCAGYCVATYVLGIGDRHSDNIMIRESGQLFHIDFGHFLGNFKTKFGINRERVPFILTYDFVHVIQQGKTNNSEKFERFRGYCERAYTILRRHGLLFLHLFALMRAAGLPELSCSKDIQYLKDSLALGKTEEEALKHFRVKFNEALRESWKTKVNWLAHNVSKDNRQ

[2] = target: T2, TGF-beta receptor type-1 (Homo sapiens) (UniProt P36897); assay: Selectivity interaction (Kinase panel (Invitrogen)) EUB0000639a TGFBR1; conditions: at 200 nM
T2 sequence (whole entry): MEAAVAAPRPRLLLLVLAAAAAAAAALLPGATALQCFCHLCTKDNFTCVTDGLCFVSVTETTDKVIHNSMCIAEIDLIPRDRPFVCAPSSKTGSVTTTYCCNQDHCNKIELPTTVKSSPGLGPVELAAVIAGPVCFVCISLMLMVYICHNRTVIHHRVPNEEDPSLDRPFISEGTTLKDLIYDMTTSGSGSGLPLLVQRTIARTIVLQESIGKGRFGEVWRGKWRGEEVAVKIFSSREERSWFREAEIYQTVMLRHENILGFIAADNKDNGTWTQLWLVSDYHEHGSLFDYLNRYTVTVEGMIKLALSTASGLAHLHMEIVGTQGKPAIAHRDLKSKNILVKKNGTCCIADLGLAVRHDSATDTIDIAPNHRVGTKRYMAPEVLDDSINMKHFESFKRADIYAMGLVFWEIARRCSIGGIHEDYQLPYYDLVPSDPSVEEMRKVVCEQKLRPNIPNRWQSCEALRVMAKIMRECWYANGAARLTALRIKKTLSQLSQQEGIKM

[3] = target: Serine/threonine-protein kinase MARK2 (Homo sapiens) (UniProt Q7KZI7); assay: Selectivity interaction (ActivX KiNativ screen (kinase selectivity in THP-1 cell lysates)) EUB0000639a MARK2; type: subcellular; conditions: lysate, at 1 µM
[4] = target: Mast/stem cell growth factor receptor Kit (Homo sapiens, UniProt P10721); assay: Selectivity interaction (KinomeScan (DiscoverX)) EUB0001049a KIT; conditions: at 1 µM
[5] = target: Serine/threonine-protein kinase PAK 2 (Homo sapiens) (UniProt Q13177); assay: Selectivity interaction (KinomeScan (DiscoverX)) EUB0001049a PAK2; conditions: at 1 µM
[6] = target: Tyrosine-protein kinase Lyn (Homo sapiens, UniProt P07948)
[7] = target: Tyrosine-protein kinase JAK2 (Homo sapiens, UniProt O60674); assay: Selectivity interaction (KinomeScan (DiscoverX)) EUB0001079a JAK2; conditions: at 1 µM
[8] = target: Calcium/calmodulin-dependent protein kinase type II subunit alpha (Homo sapiens, UniProt Q9UQM7); assay: Selectivity interaction (KinomeScan (DiscoverX)) EUB0000092b CAMK2A; conditions: at 10 µM
[9] = target: T3, Peripheral plasma membrane protein CASK (Homo sapiens) (UniProt O14936); assay: Selectivity interaction (KinomeScan (DiscoverX)) EUB0000092b CASK; conditions: at 10 µM
T3 sequence (whole entry): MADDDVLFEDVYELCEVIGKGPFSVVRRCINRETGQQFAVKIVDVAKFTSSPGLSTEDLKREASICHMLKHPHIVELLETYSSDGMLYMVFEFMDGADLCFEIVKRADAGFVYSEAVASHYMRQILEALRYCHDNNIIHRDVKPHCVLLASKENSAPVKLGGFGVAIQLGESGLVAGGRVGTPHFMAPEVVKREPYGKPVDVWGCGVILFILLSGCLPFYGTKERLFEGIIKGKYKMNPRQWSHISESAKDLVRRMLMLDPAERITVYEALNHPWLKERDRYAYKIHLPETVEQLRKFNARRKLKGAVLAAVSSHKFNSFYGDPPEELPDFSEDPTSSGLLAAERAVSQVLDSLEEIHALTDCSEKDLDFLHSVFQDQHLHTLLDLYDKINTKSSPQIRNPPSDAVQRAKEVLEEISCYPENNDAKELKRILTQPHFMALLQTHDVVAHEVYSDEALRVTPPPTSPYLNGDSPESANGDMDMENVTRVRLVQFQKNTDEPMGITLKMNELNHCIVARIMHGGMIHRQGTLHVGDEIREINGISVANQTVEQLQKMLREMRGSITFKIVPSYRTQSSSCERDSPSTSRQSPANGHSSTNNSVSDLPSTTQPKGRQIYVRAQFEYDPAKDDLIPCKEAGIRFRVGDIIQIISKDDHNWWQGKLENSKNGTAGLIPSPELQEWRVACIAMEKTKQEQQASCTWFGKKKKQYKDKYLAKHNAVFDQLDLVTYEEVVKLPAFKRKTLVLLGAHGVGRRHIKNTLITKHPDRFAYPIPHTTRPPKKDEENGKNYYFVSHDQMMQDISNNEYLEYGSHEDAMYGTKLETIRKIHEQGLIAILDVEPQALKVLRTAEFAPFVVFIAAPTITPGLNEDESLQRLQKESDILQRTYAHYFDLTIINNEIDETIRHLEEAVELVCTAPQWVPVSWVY

Chain of Serine/threonine-protein kinase MARK2 (Homo sapiens) (Q7KZI7 whole entry): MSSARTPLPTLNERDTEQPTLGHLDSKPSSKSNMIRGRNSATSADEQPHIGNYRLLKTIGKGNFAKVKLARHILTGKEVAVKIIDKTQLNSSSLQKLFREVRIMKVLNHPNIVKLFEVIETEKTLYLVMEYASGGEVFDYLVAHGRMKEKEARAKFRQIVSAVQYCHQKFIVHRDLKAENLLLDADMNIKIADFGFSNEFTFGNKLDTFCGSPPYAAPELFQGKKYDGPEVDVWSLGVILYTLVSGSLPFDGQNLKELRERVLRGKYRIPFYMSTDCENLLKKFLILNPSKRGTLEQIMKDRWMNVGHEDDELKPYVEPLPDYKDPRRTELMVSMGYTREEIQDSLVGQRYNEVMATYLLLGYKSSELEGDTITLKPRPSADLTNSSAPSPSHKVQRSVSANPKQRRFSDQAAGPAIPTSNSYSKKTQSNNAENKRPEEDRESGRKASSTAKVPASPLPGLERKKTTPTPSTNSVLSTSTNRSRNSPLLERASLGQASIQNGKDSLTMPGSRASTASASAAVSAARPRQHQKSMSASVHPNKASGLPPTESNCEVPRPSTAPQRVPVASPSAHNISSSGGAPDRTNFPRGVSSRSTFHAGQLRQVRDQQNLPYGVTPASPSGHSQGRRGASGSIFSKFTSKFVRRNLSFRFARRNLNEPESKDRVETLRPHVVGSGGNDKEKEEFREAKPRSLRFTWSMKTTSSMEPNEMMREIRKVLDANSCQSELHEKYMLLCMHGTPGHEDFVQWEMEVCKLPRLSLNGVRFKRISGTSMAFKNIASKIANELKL
Chain of Tyrosine-protein kinase Lyn (P07948 whole entry): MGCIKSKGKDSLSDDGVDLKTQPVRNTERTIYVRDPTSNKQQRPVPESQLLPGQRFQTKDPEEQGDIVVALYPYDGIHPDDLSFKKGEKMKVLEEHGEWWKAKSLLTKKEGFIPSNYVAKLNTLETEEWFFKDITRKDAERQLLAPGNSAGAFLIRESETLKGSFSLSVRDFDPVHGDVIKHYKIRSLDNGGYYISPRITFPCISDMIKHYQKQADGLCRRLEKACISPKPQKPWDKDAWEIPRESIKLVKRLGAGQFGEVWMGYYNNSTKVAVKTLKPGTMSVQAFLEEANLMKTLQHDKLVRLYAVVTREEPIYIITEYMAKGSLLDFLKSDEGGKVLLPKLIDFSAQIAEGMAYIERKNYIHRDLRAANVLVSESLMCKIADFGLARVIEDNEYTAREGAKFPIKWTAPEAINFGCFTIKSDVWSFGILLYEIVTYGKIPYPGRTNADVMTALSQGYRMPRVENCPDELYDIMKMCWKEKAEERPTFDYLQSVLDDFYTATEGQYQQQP
Chain of Mast/stem cell growth factor receptor Kit (P10721 whole entry): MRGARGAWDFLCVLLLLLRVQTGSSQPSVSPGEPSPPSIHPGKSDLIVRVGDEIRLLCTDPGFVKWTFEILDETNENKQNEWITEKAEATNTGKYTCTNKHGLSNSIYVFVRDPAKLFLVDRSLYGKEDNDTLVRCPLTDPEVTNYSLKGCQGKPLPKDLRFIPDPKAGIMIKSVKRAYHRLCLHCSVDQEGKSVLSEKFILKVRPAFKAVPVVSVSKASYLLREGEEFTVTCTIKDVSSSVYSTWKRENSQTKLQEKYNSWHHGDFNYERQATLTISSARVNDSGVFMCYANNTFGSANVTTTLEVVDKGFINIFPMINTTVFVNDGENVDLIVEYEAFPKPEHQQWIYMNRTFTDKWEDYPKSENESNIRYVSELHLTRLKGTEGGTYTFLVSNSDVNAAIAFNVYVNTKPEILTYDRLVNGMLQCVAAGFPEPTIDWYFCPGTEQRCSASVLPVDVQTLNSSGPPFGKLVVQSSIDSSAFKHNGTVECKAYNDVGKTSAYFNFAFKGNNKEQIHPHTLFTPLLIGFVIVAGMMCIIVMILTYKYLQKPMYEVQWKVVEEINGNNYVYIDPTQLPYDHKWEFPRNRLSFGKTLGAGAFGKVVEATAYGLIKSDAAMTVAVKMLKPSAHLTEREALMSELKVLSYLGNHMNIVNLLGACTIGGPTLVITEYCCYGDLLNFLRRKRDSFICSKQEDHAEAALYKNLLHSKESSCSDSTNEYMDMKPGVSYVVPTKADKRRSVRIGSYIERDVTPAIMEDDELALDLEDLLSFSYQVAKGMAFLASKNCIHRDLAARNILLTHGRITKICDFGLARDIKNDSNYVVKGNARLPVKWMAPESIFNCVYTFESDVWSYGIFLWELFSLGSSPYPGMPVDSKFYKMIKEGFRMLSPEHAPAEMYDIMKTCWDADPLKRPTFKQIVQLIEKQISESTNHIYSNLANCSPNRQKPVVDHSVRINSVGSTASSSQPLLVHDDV
Chain of Calcium/calmodulin-dependent protein kinase type II subunit alpha (Q9UQM7 whole entry): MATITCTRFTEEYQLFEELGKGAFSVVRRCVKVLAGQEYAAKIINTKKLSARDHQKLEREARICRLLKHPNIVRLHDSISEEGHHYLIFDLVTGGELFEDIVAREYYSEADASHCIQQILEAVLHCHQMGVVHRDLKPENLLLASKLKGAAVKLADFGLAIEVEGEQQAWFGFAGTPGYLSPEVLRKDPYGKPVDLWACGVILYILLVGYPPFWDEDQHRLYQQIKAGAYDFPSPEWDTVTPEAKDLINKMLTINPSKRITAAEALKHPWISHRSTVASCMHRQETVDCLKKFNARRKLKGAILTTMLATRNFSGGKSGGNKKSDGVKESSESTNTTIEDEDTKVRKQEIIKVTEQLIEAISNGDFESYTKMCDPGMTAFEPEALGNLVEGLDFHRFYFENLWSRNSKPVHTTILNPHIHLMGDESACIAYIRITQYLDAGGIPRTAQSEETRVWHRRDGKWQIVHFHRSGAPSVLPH
Chain of Serine/threonine-protein kinase PAK 2 (Homo sapiens) (Q13177 whole entry): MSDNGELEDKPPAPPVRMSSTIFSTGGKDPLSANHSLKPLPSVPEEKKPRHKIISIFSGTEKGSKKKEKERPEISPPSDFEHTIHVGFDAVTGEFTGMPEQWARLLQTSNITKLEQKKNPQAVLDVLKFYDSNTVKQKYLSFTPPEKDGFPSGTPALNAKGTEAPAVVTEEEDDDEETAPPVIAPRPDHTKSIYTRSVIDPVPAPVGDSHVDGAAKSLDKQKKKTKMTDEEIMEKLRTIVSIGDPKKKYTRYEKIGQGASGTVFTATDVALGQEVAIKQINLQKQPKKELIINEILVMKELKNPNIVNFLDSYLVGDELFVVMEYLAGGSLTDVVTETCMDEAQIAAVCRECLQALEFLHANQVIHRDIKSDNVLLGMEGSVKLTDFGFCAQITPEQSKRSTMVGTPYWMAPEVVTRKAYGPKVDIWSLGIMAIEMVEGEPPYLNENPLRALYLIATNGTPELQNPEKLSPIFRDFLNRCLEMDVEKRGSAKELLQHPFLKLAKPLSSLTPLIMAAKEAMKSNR
Chain of Tyrosine-protein kinase JAK2 (O60674 whole entry): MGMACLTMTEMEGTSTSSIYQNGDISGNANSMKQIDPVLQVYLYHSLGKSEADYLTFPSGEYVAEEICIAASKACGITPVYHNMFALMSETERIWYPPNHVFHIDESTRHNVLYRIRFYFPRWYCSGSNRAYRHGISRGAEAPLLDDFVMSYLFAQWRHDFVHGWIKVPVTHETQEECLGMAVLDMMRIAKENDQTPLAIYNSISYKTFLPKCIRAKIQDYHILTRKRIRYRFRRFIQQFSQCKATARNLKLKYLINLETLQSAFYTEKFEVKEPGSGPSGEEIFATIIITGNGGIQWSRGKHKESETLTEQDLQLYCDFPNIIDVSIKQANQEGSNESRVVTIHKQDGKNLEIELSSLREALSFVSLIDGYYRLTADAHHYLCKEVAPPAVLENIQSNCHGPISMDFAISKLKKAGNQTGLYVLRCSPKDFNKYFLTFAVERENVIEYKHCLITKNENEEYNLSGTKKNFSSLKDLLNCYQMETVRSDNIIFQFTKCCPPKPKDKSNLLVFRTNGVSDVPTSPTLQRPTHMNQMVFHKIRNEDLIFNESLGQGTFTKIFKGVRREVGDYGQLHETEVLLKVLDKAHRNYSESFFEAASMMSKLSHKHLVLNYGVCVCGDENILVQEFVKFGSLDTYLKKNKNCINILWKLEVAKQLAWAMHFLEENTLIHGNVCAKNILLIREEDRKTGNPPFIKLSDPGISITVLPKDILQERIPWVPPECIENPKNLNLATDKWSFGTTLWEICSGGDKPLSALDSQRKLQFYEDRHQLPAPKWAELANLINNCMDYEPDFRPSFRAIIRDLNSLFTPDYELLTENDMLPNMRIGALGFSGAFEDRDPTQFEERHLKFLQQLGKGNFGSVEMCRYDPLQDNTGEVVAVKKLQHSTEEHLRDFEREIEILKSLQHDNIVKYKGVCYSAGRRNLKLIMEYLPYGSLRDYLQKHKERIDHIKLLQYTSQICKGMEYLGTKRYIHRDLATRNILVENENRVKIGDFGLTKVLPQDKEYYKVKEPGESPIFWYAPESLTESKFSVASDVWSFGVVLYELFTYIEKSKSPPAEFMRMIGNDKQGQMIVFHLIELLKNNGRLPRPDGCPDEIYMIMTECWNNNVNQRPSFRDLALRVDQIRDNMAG

% of inhibition [1]: -2.6%
% of inhibition [2]: 27.1%
% of inhibition [3]: 4.3%
SMILES: CC[C@@H]1[C@H](F)C(=O)N[C@@H]1COc1nccc2cc(C(N)=O)c(OC)cc12 [ZIMLOVISERTIB]

SMILES: COc1cc(Nc2nc(C)cc(-c3cnn4nc(OC)ccc34)n2)cc(C(F)(F)F)c1
% of control [4]: 75%
% of control [5]: 75%

IC50 [6]: > 10 µM
SMILES: CCc1cccc(CC)c1NC(=O)c1nn(C)c2c1CCc1cnc(Nc3ccc(C(=O)NC4CCN(C)CC4)cc3OC(F)(F)F)nc1-2

SMILES: Nc1cnc(N2CCc3cc(S(=O)(=O)Nc4c(F)cc(Cl)cc4F)cc(N4CCCC4=O)c32)nc1 [TP-020n]
% of control [7]: 100%

SMILES: CCC(=O)N1CCN(c2ccc(-n3c(=O)ccc4cnc5ccc(-c6cnc7ccccc7c6)cc5c43)cc2C(F)(F)F)CC1
% of control [8]: 93%
% of control [9]: 100%
